Experimental data as given in the supplement of paper PMC8092582.
Structures can show the parent of a compound that is named as a salt. ± gives the standard deviation of the averaged measurements.

Tested on: HeLa
Experiment: cell viability (CellTiter-Glo) relative to median of lowest-dilution wells of all drugs (fraction); higher = more viable cells
Method: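 HeLa control and CRISPR DDX11 knockout cells were seeded in 384-well plates and incubated for 72 h with each of 64 […] drugs at six concentrations. Viability was read with CellTiter-Glo and normalised to the median of the lowest (6th) dilution wells of all drugs. Two biological replicates (BR1, BR2) are averaged; the concentration unit is not stated.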

[1] = drug concentration (unit not stated): 0.01, genotype: DDX11 knockout
[2] = drug concentration (unit not stated): 0.01, genotype: control (DDX11 wild type)
[3] = drug concentration (unit not stated): 0.04, genotype: DDX11 knockout
[4] = drug concentration (unit not stated): 0.04, genotype: control (DDX11 wild type)
[5] = drug concentration (unit not stated): 0.12, genotype: DDX11 knockout
[6] = drug concentration (unit not stated): 0.12, genotype: control (DDX11 wild type)
[7] = drug concentration (unit not stated): 0.37, genotype: DDX11 knockout
[8] = drug concentration (unit not stated): 0.37, genotype: control (DDX11 wild type)
[9] = drug concentration (unit not stated): 1.11, genotype: DDX11 knockout
[10] = drug concentration (unit not stated): 1.11, genotype: control (DDX11 wild type)
[11] = drug concentration (unit not stated): 3.33, genotype: DDX11 knockout
[12] = drug concentration (unit not stated): 3.33, genotype: control (DDX11 wild type)
[13] = drug concentration (unit not stated): 10, genotype: DDX11 knockout
[14] = drug concentration (unit not stated): 10, genotype: control (DDX11 wild type)

| SMILES | cell viability [1] | cell viability [2] | cell viability [3] | cell viability [4] | cell viability [5] | cell viability [6] | cell viability [7] | cell viability [8] | cell viability [9] | cell viability [10] | cell viability [11] | cell viability [12] | cell viability [13] | cell viability [14] |
| --- | --- | --- | --- | --- | --- | --- | --- | --- | --- | --- | --- | --- | --- | --- |
| COc1cccc2c1C(=O)c1c(O)c3c(c(O)c1C2=O)C[C@@](O)(C(=O)CO)C[C@@H]3O[C@H]1C[C@H](N)[C@@H](O)[C@H](C)O1 [Epirubicin Hydrochloride] | 1.02 ± 0.021 | 1.04 ± 0.05 | 0.89 ± 0.23 | 0.967 ± 0.084 | 0.596 ± 0.37 | 0.902 ± 0.42 | 0.304 ± 0.39 | 0.55 ± 0.72 | 0.0326 ± 0.0056 | 0.164 ± 0.21 | 0.0161 ± 0.003 | 0.0225 ± 0.011 | – | – |
| O=c1[nH]c(=O)n(C2CCCO2)cc1F (configuration not stated) [Ftorafur (Tegafur)] | 0.991 ± 0.11 | 0.978 ± 0.05 | 0.985 ± 0.063 | 0.953 ± 0.027 | 1 ± 0.057 | 1.01 ± 0.014 | 1.02 ± 0.016 | 1.01 ± 0.026 | 1 ± 0.016 | 1.01 ± 0.028 | 1.013 ± 0.0085 | 1.03 ± 0.014 | – | – |
| CO[C@@H](C(=O)N1Cc2[nH]nc(NC(=O)c3ccc(N4CCN(C)CC4)cc3)c2C1)c1ccccc1 | – | – | 0.971 ± 0.036 | 0.956 ± 0.032 | 0.877 ± 0.023 | 0.943 ± 0.18 | 0.906 ± 0.032 | 0.943 ± 0.13 | 0.744 ± 0.091 | 0.771 ± 0.065 | 0.624 ± 0.11 | 0.645 ± 0.046 | 0.466 ± 0.043 | 0.58 ± 0.1 |
| CC(C)C[C@H](NC(=O)[C@H](Cc1ccccc1)NC(=O)c1cnccn1)B(O)O [Bortezomib (Velcade)] | 0.863 ± 0.14 | 0.807 ± 0.22 | 0.215 ± 0.22 | 0.169 ± 0.17 | 0.0261 ± 0.012 | 0.0235 ± 0.00034 | 0.0196 ± 0.002 | 0.0189 ± 0.00099 | 0.0168 ± 0.0011 | 0.0168 ± 0.0026 | 0.0124 ± 0.00057 | 0.0137 ± 0.003 | – | – |
| C[C@@H]1COCCN1c1cc(-c2ccnn2C)c2ccnc(-c3ccn[nH]3)c2n1 | – | – | 1.03 ± 0.056 | 1.022 ± 0.0024 | 0.981 ± 0.083 | 1.02 ± 0.077 | 0.864 ± 0.021 | 0.959 ± 0.29 | 0.517 ± 0.036 | 0.696 ± 0.19 | 0.313 ± 0.045 | 0.398 ± 0.16 | 0.19 ± 0.086 | 0.227 ± 0.096 |
| O=C(O)CCCc1ccc(N(CCCl)CCCl)cc1 [Chlorambucil] | – | – | 1.061 ± 0.009 | 0.974 ± 0.056 | 1.02 ± 0.062 | 0.9875 ± 0.0097 | 1.05 ± 0.11 | 1.02 ± 0.012 | 1.06 ± 0.057 | 0.999 ± 0.021 | 1.07 ± 0.042 | 1.05 ± 0.082 | 0.925 ± 0.1 | 1.03 ± 0.051 |
| O=c1cc(N2CCOCC2)oc2c(-c3cccc4c3sc3ccccc34)cccc12 [NU7441] | – | – | 0.982 ± 0.06 | 0.9779 ± 0.0026 | 0.953 ± 0.032 | 0.963 ± 0.011 | 1.02 ± 0.073 | 0.9893 ± 0.0052 | 0.972 ± 0.013 | 1.019 ± 0.0044 | 0.918 ± 0.066 | 0.992 ± 0.14 | 0.834 ± 0.15 | 0.935 ± 0.37 |
| COCC[n+]1c2c(n(Cc3cnccn3)c1C)C(=O)c1ccccc1C2=O [YM155 (Sepantronium bromide)] | 0.0145 ± 0.002 | 0.015 ± 0.0031 | 0.0143 ± 0.0008 | 0.0164 ± 0.0034 | 0.0146 ± 0.00021 | 0.0177 ± 0.0016 | 0.0135 ± 0.00019 | 0.0166 ± 0.0028 | 0.0136 ± 0.00081 | 0.0158 ± 0.0023 | – | – | – | – |
| N.N.[Cl][Pt][Cl] [Cisplatin] | – | – | 0.76437 ± 0.00042 | 0.986 ± 0.093 | 0.541 ± 0.11 | 0.885 ± 0.29 | 0.233 ± 0.12 | 0.464 ± 0.12 | 0.0768 ± 0.043 | 0.112 ± 0.0088 | 0.0231 ± 0.0084 | 0.024 ± 0.0028 | 0.0148 ± 0.0023 | 0.0159 ± 0.0015 |
| CO[C@H]1C[C@@H]2CC[C@@H](C)[C@@](O)(O2)C(=O)C(=O)N2CCCC[C@H]2C(=O)O[C@H]([C@H](C)C[C@@H]2CC[C@@H](O)[C@H](OC)C2)CC(=O)[C@H](C)/C=C(\C)[C@@H](O)[C@@H](OC)C(=O)[C@H](C)C[C@H](C)/C=C/C=C/C=C/1C [Rapamycin (Sirolimus)] | 0.764 ± 0.11 | 0.916 ± 0.33 | 0.755 ± 0.13 | 0.883 ± 0.33 | 0.786 ± 0.18 | 0.887 ± 0.33 | 0.706 ± 0.11 | 0.903 ± 0.33 | 0.718 ± 0.11 | 0.878 ± 0.35 | 0.67 ± 0.12 | 0.84 ± 0.35 | – | – |
| C[C@@H](Nc1cc(F)cc(F)c1)c1cc(C(=O)N(C)C)cc2c(=O)cc(N3CCOCC3)oc12 [AZD8186] | – | – | 0.961 ± 0.075 | 1.01 ± 0.036 | 0.946 ± 0.098 | 1.01 ± 0.027 | 0.887 ± 0.049 | 0.952 ± 0.076 | 0.847 ± 0.075 | 0.92 ± 0.12 | 0.764 ± 0.082 | 0.887 ± 0.17 | 0.654 ± 0.13 | 0.908 ± 0.19 |
| Nc1ccn([C@@H]2O[C@H](CO)[C@@H](O)C2(F)F)c(=O)n1 [Gemcitabine HCl (Gemzar)] | 0.0596 ± 0.017 | 0.0573 ± 0.021 | 0.0446 ± 0.0085 | 0.0383 ± 0.016 | 0.0501 ± 0.015 | 0.0767 ± 0.053 | 0.0439 ± 0.017 | 0.065 ± 0.04 | 0.0472 ± 0.028 | 0.0514 ± 0.028 | – | – | – | – |
| CC1(C)CCC(c2ccc(Cl)cc2)=C(CN2CCN(c3ccc(C(=O)NS(=O)(=O)c4ccc(N[C@H](CCN5CCOCC5)CSc5ccccc5)c(S(=O)(=O)C(F)(F)F)c4)cc3)CC2)C1 [ABT-263 (Navitoclax)] | – | – | 1.04 ± 0.045 | 0.983 ± 0.041 | 1 ± 0.021 | 1.02 ± 0.076 | 1.04 ± 0.014 | 1.022 ± 0.0018 | 0.976 ± 0.043 | 1.0084 ± 0.00083 | 1.02 ± 0.048 | 1.06 ± 0.058 | 0.841 ± 0.14 | 0.894 ± 0.22 |
